Measurements: BindingDB's records for doi:10.1016/s0960-894x(00)00312-7 (Signal Pharmaceuticals, 2000)

Molecular target: Protein c-Fos/Transcription factor Jun (Homo sapiens, UniProt P05412+P01100)
Experiment: Inhibition of AP-1 (activator protein-1) mediated transcriptional activation in Jurkat T-cells

Protein c-Fos/Transcription factor Jun, sequence (P05412 whole entry): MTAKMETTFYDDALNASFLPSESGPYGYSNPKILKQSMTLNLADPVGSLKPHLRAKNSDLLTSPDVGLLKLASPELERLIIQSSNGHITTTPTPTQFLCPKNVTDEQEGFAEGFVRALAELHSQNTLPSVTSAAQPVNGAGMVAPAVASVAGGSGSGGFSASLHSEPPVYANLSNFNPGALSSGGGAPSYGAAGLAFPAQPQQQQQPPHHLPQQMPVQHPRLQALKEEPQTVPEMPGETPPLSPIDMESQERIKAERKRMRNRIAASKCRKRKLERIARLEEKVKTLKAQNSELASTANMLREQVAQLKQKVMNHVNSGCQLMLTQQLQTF
Protein c-Fos/Transcription factor Jun, sequence (P01100 whole entry): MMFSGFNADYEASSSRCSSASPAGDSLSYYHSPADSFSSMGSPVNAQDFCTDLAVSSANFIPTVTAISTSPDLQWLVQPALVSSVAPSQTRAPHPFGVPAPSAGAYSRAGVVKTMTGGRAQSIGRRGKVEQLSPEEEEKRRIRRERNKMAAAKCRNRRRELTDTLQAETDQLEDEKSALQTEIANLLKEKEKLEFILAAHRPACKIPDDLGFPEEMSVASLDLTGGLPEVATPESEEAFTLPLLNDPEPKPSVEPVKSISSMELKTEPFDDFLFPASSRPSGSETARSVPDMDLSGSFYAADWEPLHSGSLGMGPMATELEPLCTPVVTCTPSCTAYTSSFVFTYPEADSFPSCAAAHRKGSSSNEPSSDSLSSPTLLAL

Compared with `CCOC(=O)c1cnc(-c2cccs2)nc1NN1C(=O)C=C(C)C1=O` [ethyl 4-(3-methyl-2,5-dioxo-2H-pyrrol-1(5H)-ylamino)-2-(thiophen-2-yl)pyrimidine-5-carboxylate], `CCOC(=O)c1cnc(-c2ccsc2)nc1NN1C(=O)C=C(C)C1=O` [ethyl 4-(3-methyl-2,5-dioxo-2H-pyrrol-1(5H)-ylamino)-2-(thiophen-3-yl)pyrimidine-5-carboxylate] is 5-fold higher in IC50: 20 nM for the first, 100 nM for the second.

Compared with `CCOC(=O)c1cnc(Oc2ccccc2)nc1NN1C(=O)C=C(C)C1=O` [ethyl 4-(3-methyl-2,5-dioxo-2H-pyrrol-1(5H)-ylamino)-2-phenoxypyrimidine-5-carboxylate], `CCOC(=O)c1cnc(-c2ccccc2)nc1N(C)N1C(=O)C=C(C)C1=O` [ethyl 4-(methyl(3-methyl-2,5-dioxo-2H-pyrrol-1(5H)-yl)amino)-2-phenylpyrimidine-5-carboxylate] is 7.5-fold lower in IC50: 15000 nM for the first, 2000 nM for the second.

`CCOC(=O)c1cnc(-c2cccs2)nc1N(C)N1C(=O)C=C(C)C1=O` [ethyl 4-(methyl(3-methyl-2,5-dioxo-2H-pyrrol-1(5H)-yl)amino)-2-(thiophen-2-yl)pyrimidine-5-carboxylate] gave an IC50 of 1000 nM.
